Target: Histone deacetylase (Eimeria tenella)
Assay: Tested for Histone deacetylase enzyme inhibition assay using Eimeria tenella extract

Row | Compound | IC50 [nM]
1 | CCC(=O)CCCCC[C@@H]1NC(=O)[C@H]2CCCCN2C(=O)[C@H]([C@@H](C)CC)NC(=O)[C@H](c2cn(OC)c3ccccc3c2=O)NC1=O | 3.8
2 | CCC(=O)CCCCC[C@@H]1NC(=O)[C@H]2CCCCN2C(=O)[C@H]([C@@H](C)CC)NC(=O)[C@H](c2cn(CC)c3ccccc3c2=O)NC1=O | 11
3 | CCC(=O)CCCCC[C@@H]1NC(=O)[C@H]2CCCCN2C(=O)[C@H]([C@@H](C)CC)NC(=O)[C@H](c2cn(C)c3ccccc3c2=O)NC1=O | 9
4 | CCCn1cc([C@@H]2NC(=O)[C@H](CCCCCC(=O)CC)NC(=O)[C@H]3CCCCN3C(=O)[C@H]([C@@H](C)CC)NC2=O)c(=O)c2ccccc21 | 28

From BindingDB's records for doi:10.1021/jm0001976 (Merck Research Laboratories, 2000)
